Molecules are shown by their SMILES.

Assay type in all cases: cell-based
One assay deals with T1, PTGER2 (EP2) (Homo sapiens, UniProt P43116).
T1 construct: host or cells: HEK 293 (PathHunter, stably transfected)
Briefly: hEP2 b-Arrestin Assay (PathHunter HEK 293 PTGER2 b-arrestin cells, PGE2 5 μM). The conditions noted are these: antagonistic activity, beta-arrestin assay, HEK 293 PTGER2 cells, PGE2 5 μM (EC80); read-out: hEP2 b-arr IC50. The gist of the method: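 PathHunter enzyme-fragment complementation in HEK 293 cells: compounds (10 μM-2 nM or 1 μM-0.2 nM) pre-incubated 15 min at 37 °C, then 5 μM PGE2 (EC80) for 120 min at 37 °C. Chemiluminescence read after 1 h detection; IC50 from duplicate dose-response fits, means of repeats.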

Another assay has as its target T2, EP4 (Homo sapiens, UniProt P35408).
T2 construct: BT549 breast cancer cells, express high endogenous EP4 levels and very low EP2 levels; host or cells: BT549 breast cancer cells
In words: hEP4 cAMP Assay (BT549 breast cancer cells, HTRF cAMP, PGE2 6 nM). Particulars: antagonistic activity, PGE2 6 nM (EC80). The gist of the method:
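Antagonism is measured as inhibition of PGE2 (6 nM final, EC80) cAMP accumulation in EP4-expressing BT549 breast cancer cells, after a 45 min room-temperature compound pre-incubation and 30 min agonist step, with 2 mM IBMX present. HTRF ratio gives cAMP relative to DMSO; IC50 fitted, means over repeat runs.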

Another assay concerns the target T3, PTGER4 (EP4) (Homo sapiens, UniProt P35408).
T3 construct: host or cells: HEK 293 (PathHunter, stably transfected)
In words: hEP4 b-Arrestin Assay (PathHunter HEK 293 PTGER4 b-arrestin cells, PGE2 20 nM). The conditions noted are these: antagonistic activity, beta-arrestin assay, HEK 293 PTGER4 cells, PGE2 20 nM (EC80); read-out: hEP4 b-arr IC50. An outline of the steps:
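PathHunter HEK 293 EP4 b-arrestin enzyme-complementation cells preincubated 15 min at 37° C with compound (10 μM-2 nM or 1 μM-0.2 nM), then stimulated 120 min with 20 nM PGE2 (EC80). Chemiluminescence read; IC50 from duplicate % activity vs DMSO, one-site fit, averaged over repeats.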

The next assay deals with T4, EP2 (Homo sapiens, UniProt P43116).
T4 construct: SF295 glioblastoma cells express high endogenous EP2 and no EP4; host or cells: SF295 glioblastoma cells
In words: hEP2 cAMP Assay (SF295 glioblastoma cells, HTRF cAMP, PGE2 75 nM). The conditions noted are these: antagonistic activity, PGE2 75 nM (EC80). The gist of the method: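 IC50 values derive from duplicate-point curves of percent cAMP relative to DMSO, read by HTRF (665/620 nm) against a cAMP calibrator. Compounds (30 μM to 0.01 nM ranges) were given 45 min at room temperature before 30 min with 75 nM PGE2, in EP2-only SF295 cells with 2 mM IBMX.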
For orientation: Time-resolved FRET reads energy transfer from a long-lived donor to a nearby acceptor.

T2 sequence (P35408 whole entry): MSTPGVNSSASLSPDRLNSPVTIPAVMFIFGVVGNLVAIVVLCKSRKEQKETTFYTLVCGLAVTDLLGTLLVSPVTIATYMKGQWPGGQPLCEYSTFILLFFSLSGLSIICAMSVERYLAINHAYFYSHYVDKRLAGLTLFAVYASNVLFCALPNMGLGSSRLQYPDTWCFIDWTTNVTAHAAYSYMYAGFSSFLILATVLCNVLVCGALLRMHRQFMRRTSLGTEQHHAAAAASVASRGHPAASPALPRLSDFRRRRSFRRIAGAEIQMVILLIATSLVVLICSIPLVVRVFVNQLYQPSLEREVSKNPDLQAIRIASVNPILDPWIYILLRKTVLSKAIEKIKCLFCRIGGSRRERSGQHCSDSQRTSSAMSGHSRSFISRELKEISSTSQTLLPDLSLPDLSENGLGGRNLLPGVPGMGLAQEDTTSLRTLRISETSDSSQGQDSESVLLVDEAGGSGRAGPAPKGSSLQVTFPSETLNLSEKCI
T3 sequence (P35408 whole entry): as above
T1 sequence (P43116 whole entry): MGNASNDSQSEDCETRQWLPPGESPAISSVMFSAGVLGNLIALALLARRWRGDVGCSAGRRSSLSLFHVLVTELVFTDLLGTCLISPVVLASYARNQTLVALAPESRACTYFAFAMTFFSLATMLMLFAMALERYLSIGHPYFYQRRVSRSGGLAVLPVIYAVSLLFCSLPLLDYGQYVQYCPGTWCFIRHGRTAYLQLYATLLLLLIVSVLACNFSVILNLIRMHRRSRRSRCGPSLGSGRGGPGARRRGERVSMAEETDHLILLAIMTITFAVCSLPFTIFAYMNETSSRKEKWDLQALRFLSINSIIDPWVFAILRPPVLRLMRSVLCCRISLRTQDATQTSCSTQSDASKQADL
T4 sequence (P43116 whole entry): as above

Turning to `CCOc1cc(-c2cc(NCCc3c(OC)ccc4ccccc34)ncn2)sc1/C=C/C(=O)O` [Example 118, (E)-3-(3-Ethoxy-5-{6-[2-(2-methoxy-naphthalen-1-yl)-ethylamino]-pyrimidin-4-yl}-thiophen-2-yl)-acrylic acid], the IC50 (commonly the concentration that inhibits the measured activity by half) on PTGER2 (EP2) came out at 11 nM; on EP4 it was 55 nM; on PTGER4 (EP4) it was 12 nM; on EP2, 94 nM.

Turning to `CCCCOc1cc(-c2cc(NCCc3c(OC)ccc4ccccc34)ncn2)ccc1C(=O)O` [Example 119, 2-Butoxy-4-{6-[2-(2-methoxy-naphthalen-1-yl)-ethylamino]-pyrimidin-4-yl}-benzoic acid], the IC50 at PTGER2 (EP2) turned out to be 18 nM; against EP4, 200 nM; on PTGER4 (EP4), 222 nM; on EP2, 12 nM.

Consider `CCOc1cc(-c2cc(NCCc3c(OC)ccc4ccccc34)ncn2)ccc1OCCC(=O)O` [Example 120, 3-(2-Ethoxy-4-{6-[2-(2-methoxy-naphthalen-1-yl)-ethylamino]-pyrimidin-4-yl}-phenoxy)-propionic acid], for which the IC50 on PTGER2 (EP2) is 16 nM; against EP4, 206 nM; at PTGER4 (EP4), 75 nM; on EP2 it was 88 nM.

As for `CCCc1cc(-c2cc(NCCc3c(OC)ccc4ccccc34)ncn2)ccc1C(=O)O` [Example 121, 4-{6-[2-(2-Methoxy-naphthalen-1-yl)-ethylamino]-pyrimidin-4-yl}-2-propyl-benzoic acid], the IC50 at PTGER2 (EP2) was found to be 12 nM; at EP4 it was 53 nM; at PTGER4 (EP4), 308 nM; on EP2 it was 5 nM.

For `CCOc1cc(-c2cc(NCCc3c(OC)ccc4ccccc34)ncn2)ccc1-c1nnn[nH]1` [Example 125, {6-[3-Ethoxy-4-(1H-tetrazol-5-yl)-phenyl]-pyrimidin-4-yl}-[2-(2-methoxy-naphthalen-1-yl)-ethyl]amine], the IC50 was found to be 8 nM at PTGER2 (EP2), 29 nM at EP4, 29 nM at PTGER4 (EP4) and 24 nM at EP2.

For `CCOc1cc(-c2cc(NCCc3c(OC)ccc4ccccc34)ncn2)ccc1-c1noc(=O)[nH]1` [Example 126, 3-(2-Ethoxy-4-{6-[2-(2-methoxy-naphthalen-1-yl)-ethylamino]-pyrimidin-4-yl}-phenyl)-4H-[1,2,4]oxadiazol-5-one], the IC50 was determined as 5 nM at PTGER2 (EP2), 43 nM against EP4, 34 nM at PTGER4 (EP4) and 20 nM at EP2.

With `COc1ccc2ccccc2c1CCNc1cc(-c2ccc(C(=O)O)c(OC(F)F)c2)ncn1` [Example 128, 2-Difluoromethoxy-4-{6-[2-(2-methoxy-naphthalen-1-yl)-ethylamino]-pyrimidin-4-yl}-benzoic acid], the IC50 at PTGER2 (EP2) worked out at 10 nM; against EP4 it was 250 nM; at PTGER4 (EP4), 291 nM; at EP2, 3 nM.

`CCOc1cc(-c2cc(NCCc3c(OC)ccc4ccccc34)ncn2)sc1CCC(=O)O` [Example 131, 3-(3-Ethoxy-5-{6-[2-(2-methoxy-naphthalen-1-yl)-ethylamino]-pyrimidin-4-yl}-thiophen-2-yl)-propionic acid]: the IC50 at PTGER2 (EP2) came out at 54 nM; at EP4, 157 nM; on PTGER4 (EP4), 88 nM; on EP2, 73 nM.

Turning to `CCOc1cc(-c2cc(NCCc3c(OC)ccc4ccccc34)ncn2)ccc1NC(=O)C(=O)O` [Example 133, N-(2-Ethoxy-4-{6-[2-(2-methoxy-naphthalen-1-yl)-ethylamino]-pyrimidin-4-yl}-phenyl)-oxalamic acid], the IC50 stood at 6 nM at PTGER2 (EP2), 79 nM at EP4, 41 nM at PTGER4 (EP4) and 22 nM against EP2.

As to `COc1ccc2ccccc2c1CCNc1cc(-c2ccc(-c3cc(O)no3)cc2)ncn1` [Example 134, 5-(4-{6-[2-(2-Methoxy-naphthalen-1-yl)-ethylamino]-pyrimidin-4-yl}-phenyl)-isoxazol-3-ol], the half-maximal inhibitory concentration (IC50) on PTGER2 (EP2) was 8 nM; on EP4, 351 nM; on PTGER4 (EP4), 280 nM; against EP2 it was 91 nM.

`CCOc1cc(-c2cc(NCCc3c(OC)ccc4ccccc34)ncn2)sc1C(=O)NS(N)(=O)=O` [Example 135, 3-Ethoxy-5-(6-((2-(2-methoxynaphthalen-1-yl)ethyl)amino)pyrimidin-4-yl)-N-sulfamoylthiophene-2-carboxamide]: the IC50 came out at 5 nM at PTGER2 (EP2), 67 nM against EP4, 23 nM on PTGER4 (EP4) and 3 nM at EP2.

Consider `CCOc1cc(-c2cc(NCCc3c(OC)ccc4ccccc34)ncn2)sc1C(=O)NS(C)(=O)=O` [Example 136, N-(3-Ethoxy-5-{6-[2-(2-methoxy-naphthalen-1-yl)-ethylamino]-pyrimidin-4-yl}-thiophene-2-carbonyl)-methanesulfonamide], for which the IC50 is 3 nM at PTGER2 (EP2), 86 nM against EP4, 24 nM on PTGER4 (EP4) and 10 nM against EP2.

`CCOc1cc(-c2cc(NCCc3cccc4[nH]ccc34)ncn2)sc1-c1noc(=O)[nH]1` [Example 137, 3-(3-Ethoxy-5-{6-[2-(1H-indol-4-yl)-ethylamino]-pyrimidin-4-yl}-thiophen-2-yl)-[1,2,4]oxadiazol-5(4H)-one]: the IC50 at PTGER2 (EP2) is 16 nM; against EP4, 37 nM; at PTGER4 (EP4), 37 nM; on EP2, 37 nM.

Regarding `CCOc1cc(-c2cc(NCCc3c(OC)ccc4ccccc34)ncn2)sc1-c1noc(=O)[nH]1` [Example 138, 3-(3-Ethoxy-5-{6-[2-(2-methoxy-naphthalen-1-yl)-ethylamino]-pyrimidin-4-yl}-thiophen-2-yl)-[1,2,4]oxadiazol-5(4H)-one], the IC50 is 3 nM at PTGER2 (EP2), 8 nM against EP4, 4 nM on PTGER4 (EP4) and 6 nM against EP2.

Take `CCOc1cc(-c2cc(NCCc3cccc4ccncc34)ncn2)sc1-c1noc(=O)[nH]1` [Example 139, 3-{3-Ethoxy-5-[6-(2-isoquinolin-8-yl-ethylamino)-pyrimidin-4-yl]-thiophen-2-yl}-[1,2,4]oxadiazol-5(4H)-one]: the IC50 was found to be 186 nM on PTGER2 (EP2), 28 nM on EP4, 48 nM at PTGER4 (EP4) and 526 nM against EP2.

For `CCOc1cc(-c2cc(NCCc3cccc4cccnc34)ncn2)sc1-c1noc(=O)[nH]1` [Example 140, 3-{3-Ethoxy-5-[6-(2-quinolin-8-yl-ethylamino)-pyrimidin-4-yl]-thiophen-2-yl}-[1,2,4]oxadiazol-5(4H)-one], the IC50 at PTGER2 (EP2) came to 119 nM; on EP4, 17 nM; at PTGER4 (EP4) it was 15 nM; against EP2, 142 nM.

For `CCOc1cc(-c2cc(NCCc3ccc(OC)c4ccccc34)ncn2)sc1-c1noc(=O)[nH]1` [Example 141, 3-(3-Ethoxy-5-{6-[2-(4-methoxy-naphthalen-1-yl)-ethylamino]-pyrimidin-4-yl}-thiophen-2-yl)-[1,2,4]oxadiazol-5(4H)-one], the IC50 at PTGER2 (EP2) was determined as 61 nM; against EP4, 17 nM; at PTGER4 (EP4), 4 nM; at EP2, 72 nM.

These data come from patent publication US11446298B2, “Pyrimidine derivatives” (Idorsia Pharmaceuticals Ltd, priority 2017, dated 2022).
